Reference: patent US11939609B2, “Rewiring aberrant cancer signaling to a therapeutic effector response with a synthetic two-component system” (The Board of Trustees of the Leland Stanford Junior …, priority 2017, dated 2024)

Key:
[1] = tested on: BT-474, H1975, MCF-7, MCF-10A and MRC-5 cells; details: 10 μM carboplatin + 10 μM paclitaxel; 10 μM lapatinib
[2] = tested on: MRC5 cells; assay: Caspase-3 activity assay (fluorescent indicator imaging); assay type: cell-based; details: non-cancerous lung fibroblast line
Source text: (§1) To package lentivirus, HEK293T cells at ˜70% confluency were transfected with psPAX2, pMD2.G, and pLL3.7 plasmids using Lipofectamine 2000 (Life Technologies). Two days following transfection, viral supernatant was filtered with a 0.45 μm PES filter before using to infect target cells. rAAVdj-CAG-RASER1C-mCardinal-BID and rAAVdj-mCardinal were produced at the Stanford Gene Vector and Virus Core (Stanford University). Virus infected cells were neither sorted nor purified prior to obtaining the results shown, to remain close to the actual use scenario.
(§2) NucView 488 Caspase-3 substrate (Biotium) and Hoechst 33342 (Invitrogen) were diluted into culture media to final concentrations of 1 μM each. After 1 h of incubation, cells were imaged with the Axiovert 200M with a 10×0.5-NA air objective.

[3] = tested on: MCF10A cells; assay: as above; assay type: cell-based; details: non-cancerous breast epithelium line
Source text: as §1, §2

Structure (SMILES)	cytotoxicity across ErbB-hyperactive and ErbB-normal cell lines [1]	apoptosis (caspase-3 fluorescent indicator) [2]	apoptosis (caspase-3 fluorescent indicator) [3]
CS(=O)(=O)CCNCc1ccc(-c2ccc3ncnc(Nc4ccc(OCc5cccc(F)c5)c(Cl)c4)c3c2)o1 [Lapatinib, lapatinib]	varied by cell line, but did not consistently correlate with ErbB status	–	–
CC(=O)O[C@H]1C(=O)[C@@]2(C)[C@H]([C@H](OC(=O)c3ccccc3)[C@]3(O)C[C@H](OC(=O)[C@H](O)[C@@H](NC(=O)c4ccccc4)c4ccccc4)C(C)=C1C3(C)C)[C@]1(OC(C)=O)CO[C@@H]1C[C@@H]2O [paclitaxel]	–	apoptosis is induced by paclitaxel	apoptosis is induced by paclitaxel
